We go through two molecules from patent US7122335B1, “Compounds and methods to enhance rAAV transduction” (priority 1999, dated 2006).

Peptide text beside a SMILES is read from it. * marks the point of attachment. Cbz = O=C(OCc1ccccc1)*

The test system of data set [1] is primary human fibroblasts. The class given is cell-based. As to conditions: confluent fibroblasts, AV.GFP3ori MOI 1000, 96 hours post-infection; brefeldin A 10 μg/ml, vinblastine 22 μM, cytochalasin B 1 μM, NH4Cl 2 mM, chloroquine 20 μm, LLnL 400 μM, Z-LLL 4 μM. The procedure:
FIG. 6. Primary confluent fibroblasts were infected with AV.GFP3ori virus at an MOI=1000 particles/cell following treatment with brefeldin A (10 μg/ml), vinblastine (22 μM), cytochalasin B (1 μM), NH4Cl (2 mM), chloroquine (20 μm), LLnL (400 μM), and Z-LLL (4 μM), final concentration indicated in brackets. Cells were harvested at 96 hours post-infection and the transduction efficiency was compared to untreated rAAV infected cells by FACS analysis for GFP expression. To control for non-specific effects caused by toxicity of the compounds, the percentage of live cells was also assessed by the absence of propidium iodide incorporation.
80% confluent human primary fibroblasts were infected with AV.GFP3ori at an moi of 1000 DNA particles/cell. FIG. 16A depicts GFP transgene expression in the absence (left photographs) and presence of 40 μM LLnL (right photographs) at 96 hours post-infection. […] Top and bottom panels represent bright field and FITC-channel fluorescent photomicrographs, respectively. The mean (+/−SEM, N=3) percentage of cells transduced with rAAV, as measured by FACS sorting of GFP expressing cells, is presented in the bar graph of FIG. 16B. […] In this study, rAAV from infected cells was first immunoprecipitated with anti-VP1,2,3 (AAV-2 capsid) monoclonal antibody followed by Western blot detection of ubiquitin side chains using an anti-ubiquitin monoclonal antibody. […] Epithelia were infected with AV.GFP3ori (10,000 particles/cell) from the basolateral surface following treatment with ubiquitin ligase inhibitor dipeptides (0.2 mM H-Leu-Ala-OH and 0.2 mM H-His-Ala-OH).
Initial studies were performed in confluent primary human fibroblasts since dose titrations and toxicity could be quickly assessed. Selected compounds were used to treat fibroblast monolayers prior to rAAV infection. rAAV transduction was assessed at 96 hours post-infection by FACS analysis, and the percentage of dead cells was simultaneously assessed by incorporation of propidium iodide.
These tripeptides are structurally related to chloroquine but have different lipid solubility and specificity for cysteine proteases (Seglen, 1983). These molecules decrease endosomal degradation of molecules by a mechanism different than altering pH.
Transduction of polarized airway epithelial cells and primary human fibroblasts. rAAV infection of fully differentiated bronchial cells was performed as described in Duan et al. (1998). For infections from the apical surface of the airway cells, 5 μl rAAV was mixed with 50 μl of culture media and applied directly onto the apical compartment of Millicell inserts (MOI=10,000 particles/cell). During apical infection, the basolateral side of the Millicell was continuously bathed in culture media. Gene transfer to the basal side was performed by inverting Millicell inserts and applying viral vector to the bottom of the supporting filter membrane in a 50 μl volume for 2 hours. Subsequently, Millicell inserts were returned to the upright position, in the continued presence of the original viral inoculum plus an additional 450 μl of media. For both apical and basolateral infections, rAAV containing media was removed after 24 hours and replaced with either fresh culture media (for the basal side) or exposed to air (for the apical side). To test the effect of different agents on the efficiency of AAV transduction in polarized airway cells, 1 μl of each solution was mixed with AAV prior to infection of airway epithelia. Agents were usually presented during the 24 hours AAV infection period unless indicated otherwise.

The nature of data set [2]: Toxicity of proteasome inhibitors in mice, intra-tracheal and systemic (IV) delivery. The class given is in vivo. The note with it: 10, 100 and 1000 fold higher doses than used in polarized airway cells. The procedure:
Long-term enhancement of rAAV transduction by proteasome inhibitor in vivo. To evaluate the potential utility of proteasome inhibitors for in vivo gene therapy, both the toxicity and efficacy of these agents for in vivo rAAV mediated gene transfer in the mouse lung was tested. To assess the toxicity of these proteasome inhibitors in mice, 10, 100, and 1000 fold higher effective doses of LLnL or Z-LLL were administered than used to induce gene transfer in polarized airway cells, using both intra-tracheal and systemic (IV) delivery. No toxicity was indicated by histologic evaluation of the lung and liver (data not shown) or was evidenced by the death of animals. To investigate whether these proteasome inhibitors could improve rAAV transduction in vivo, AV.LacZ (5×10^10 particles) was delivered either alone or in the presence of 400 μM Z-LLL by intranasal administration. Mouse lungs were harvested at 3, 10 and 150 days post-infection to evaluate short and long term effects. […] Targeted transgene expression was predominantly confined to the conducting airways, rather than in the parenchyma. Alveolar cells were rarely transduced. […] The range of transgene expression in distal and proximal airways was 0 to 4% and 5 to 18%, respectively.

For data set [3], the system named is polarized human bronchial epithelia. Description: S35-labeled rAAV binding/entry assay in polarized bronchial epithelia. It is filed as cell-based. On the procedure:
FIGS. 12A and 12B. Binding and uptake of S^35-labeled AV.GFP3ori in fully differentiated human bronchial epithelia. The ability of polarized bronchial epithelia to bind and internalize virus from the apical or the basolateral surfaces was quantified using S^35-labeled rAAV. The binding assay was performed after incubation with virus at 4° C. for 1 hour, followed by repeated washing in PBS. The combined bound and internalized virus was quantified following incubation with virus at 4° C. for 1 hour, and subsequent incubation at 37° C. for 2 hours and 24 hours. Non-specific background binding of radiolabeled virus was determined in parallel studies on collagen coated empty chambers not seeded with bronchial cells. Background counts (averaging 15.67+/−5.17 cpm/well) were subtracted from experimental sample counts prior to analysis. Data in the right side of each figure is presented as the net cpms of bound/internalized virus (raw counts minus background counts of empty transwells). The results represent the mean (+/−SEM) of 6 independent transwells for each condition. Experiments were performed in triplicate from two independent tissue samples. The significance of the differences between each pair of samples (with or without LLnL) was evaluated using the Student's t-test and p-values are provided in brackets above the data for each condition. To correlate uptake of radioactive virus with the functional expression the rAAV encoded transgene, GFP expression from the same set of samples was quantified at 24 hour post-infection by indirect fluorescent microscopy. […]
Viral binding/entry assays and in situ localization of viral particles. […] Combined binding/entry of rAAV into differentiated airway epithelia was measured under the same conditions, except that the cultures were incubated at 37° C. for an additional 2–24 hours before they were harvested. […] After washing three times in PBS, cells were lysed in situ by the addition of 5 ml of liquid scintillation cocktail at room temperature for 5 minutes, and the radioactivity was quantitated in a scintillation counter.

Data set [4] in a line: Solubility in ethanol. It is filed as physicochemical.

On to `CC(C)C[C@@H](C=O)NC(=O)[C@H](CC(C)C)NC(=O)[C@H](CC(C)C)NC(=O)OCc1ccccc1` [Z-LLL, N-carbobenzoxyl-L-leucinyl-L-leucinyl-L-leucinal] (Cbz-Leu-Leu-Leu-aldehyde), for which the “rAAV transduction (GFP expression) compared to untreated rAAV infected cells” value in data set [1] was “significantly increased rAAV transduction”. Besides, in data set [2], the “toxicity (histology of lung and liver, death of animals)” value is “No toxicity”.

For “N-acetyl-L-leucinyl-L-leucinal-L-norleucinal [LLnL]”, the “rAAV transduction (GFP expression) compared to untreated rAAV infected cells” value in data set [1] is given as “significantly increased rAAV transduction”. Further, the “uptake of S35 labeled rAAV” value in data set [3] (2 hour infection period at 37° C.) is given as “not altered”. In addition, the “amount of intracellular radioactivity” value in data set [3] (24 hours post-infection, either surface infected) is listed as “very significant decrease”. In addition, in data set [3] (S35 labeled rAAV, with or without LLnL), the “4° C. rAAV binding” value is reported as “no significant effect”. In addition, the “toxicity (histology of lung and liver, death of animals)” value in data set [2] is given as “No toxicity”. Moreover, the solubility in ethanol entry in data set [4] was “poor solubility”.
